From patent US20090209606A1 (priority 2004, published 2009)
Read-outs that look alike come from different tables or passages of the source. Residues, ends and D or L forms follow the SMILES beside them. *: point of attachment. Cbz = O=C(OCc1ccccc1)*; CH2F = FC*

Experiments:
[1] = system: alkylguanyl transferase (AGT) in SU-DHL-1 cells
[2] = system: 60 human tumor cell lines
[3] = system: SU-DHL-1 cells; type: cell-based
[4] = system: PARP in SU-DHL-1 cells; type: cell-based
[5] = system: SU-DHL-1 cells; experiment: Cell cycle analysis (propidium iodide, FACS); conditions: SU-DHL-1, eight hours, equitoxic concentrations (bendamustine 50 μM)
[6] = system: SU-DHL-1 cells; type: cell-based; remark: listed apart in the source
[7] = system: SU-DHL-1 cells; type: cell-based; remark: listed apart in the source
[8] = system: SU-DHL-1 cells; experiment: cells; type: cell-based; conditions: Homo sapiens
[9] = system: MCF-7/ADR cells and p53 deficient RK0-E6 colon adenocarcinoma cells; type: cell-based
[10] = system: gamma-H2AX histone; experiment: H2AX foci formation (immunofluorescence); conditions: 50 μM
Method: Cell were grown on Lab-Tek chamber slides (Nalge Nunc Intl., Naperville, Ill.) in RPMI 1640 media supplemented with 10% FBS. […] The cells were incubated for 30 minutes at 37° C. and then washed two times with PBS. They were incubated for an additional 4 hours at 37° C. The cells were then washed twice with 1×PBS and incubated 10 minutes in −20° C. 100% methanol to fix the cells. They were then washed three times for five minutes each with 1×PBS. They were incubated at room temperature for 1 hour in blocking buffer (10% FBS in 1×PBS, 1% BSA). The slides were incubated at 4° C. with rocking overnight with the primary polyclonal anti-H2AX antibody (R & D Systems, Minneapolis, Minn.). The antibody was diluted in blocking buffer at a ratio of 1:10,000. Slides were washed three times with 1×PBS and incubated with Alexa Flour 488 goat anti-rabbit secondary antibody (1:4000) (Molecular Probes, Eugene, Oreg.) for 45 minutes at room temperature with gentle shaking. Slides were washed three times with 1×PBS and then the chambers removed and SlowFade Light Antifade with DAPI (Molecular Probes) was added to the cells and coverslips sealed on the slides. Analysis was performed using a motorized Zeiss AxioPlan 2e imaging microscope with DIC optics and fluorescence, a Zeiss AxioCam HRm camera and Zeiss Axiovision software Version 4.2.

[11] = system: relapsed indolent or transformed rituximab-refractory B-cell NHL; experiment: Phase II multicenter trial; type: in vivo, human
Excerpt: This study evaluated the efficacy and toxicity of bendamustine in patients with NHL who have relapsed or are refractory to previous chemotherapy regimens. Patients refractory to rituximab had disease progression within 6 months of treatment.
Methods: This Phase II multicenter trial enrolled patients with relapsed indolent or transformed rituximab-refractory B-cell NHL from 17 sites in the US and Canada. […] Median age of patients was 63 years (range: 38-84) and 88% had Stage III/IV disease. Patients received bendamustine 120 mg/m^2 IV over 30-60 minutes, days 1 and 2, every 21 days for up to 6 cycles. Response was measured using the International Working Group criteria.

[12] = system: Ape-1 base excision repair enzyme; type: cell-based
[13] = SU-DHL-1, 72 h, read-out: Ave IC50
[14] = SU-DHL-1, 72 h, read-out: Ave IC90

## O=NN(CCCl)C(=O)NCCCl [carmustine]
[1]
  effect of O6-benzylguanine on cytotoxic potency: significantly sensitizes

## CN(C)/N=N/c1[nH]cnc1C(N)=O [DTIC, Dacarbazine, Dacarbazine]
[2]
  Correlation (PCC) with bendamustine, LC50: 0.792 (LC50)

## O=C(O)CCCc1ccc(N(CCCl)CCCl)cc1 [Chlorambucil, chlorambucil]
[3]
  PLK-1 and Aurora A kinase (AurkA) expression: No changes
  down-regulation of mRNA expression of PLK-1, Aurora Kinases A and B, cyclin B1: minor effect
  induction of p21 and NOXA mRNA: much lower extent
  up-regulation of Exo1 expression: 1.8 fold
[4]
  PARP cleavage: No PARP cleavage
[5]
  S-phase distribution increase: approximately 20%
[6]
  loss of viability after brief exposure and wash-out: minimal loss of viability
[7]
  PARP protein expression: no changes
  expression of total p53: small increase
  up-regulation of Ser-15-phosphorylated p53: no changes
[8]; [13]
  IC50: 3.4 µM
[8]; [14]
  IC90: 6.2 µM
[8]; SU-DHL-1, read-out: IC90 concentration
  IC90: 5 µM
[8]; SU-DHL-1, read-out: equitoxic (IC50) concentrations
  IC50: 4 µM

## O=P1(N(CCCl)CCCl)NCCCO1 (centres unmarked) [cyclophosphamide]
[5]
  S-phase distribution increase: ~15%
[1]
  effect of O6-benzylguanine on cytotoxic potency: Opposite results

## COC(=O)C[C@H](NC(=O)[C@H](C)NC(=O)[C@@H](NC(=O)OCc1ccccc1)C(C)C)C(=O)CF [zVAD-fmk] (Cbz-Val-Ala-Asp(OMe)-CH2F)
[9]
  bendamustine-induced increases in Annexin-V-positive cells: able to inhibit

## Cl.Cn1c(CCCC(=O)O)nc2cc(N(CCCl)CCCl)ccc21 [Bendamustine, 4-{5-[bis(2-chloroethyl)amino]-1-methyl-2-benzimidazolyl} butyric acid hydrochloride]
[3]
  Fen1 mRNA regulation: upregulated
  PLK-1 and Aurora A kinase (AurkA) expression: down-regulated
  down-regulation of mRNA expression of PLK-1, Aurora Kinases A and B, cyclin B1: 60 to 80%
  induction of p21 and NOXA mRNA: induced
  up-regulation of Exo1 expression: 2.5 fold
[4]
  PARP cleavage: Maximal PARP cleavage
[5]
  S-phase distribution increase: over 40%
[10]
  time to detectable intranuclear H2AX foci: ≤ 30 min
[6]
  loss of viability after brief exposure and wash-out: extensive loss of viability
[9]; 50 μM, alone or with 20 μM zVAD-fmk, two or three days
  micronucleation (nuclear morphology, DAPI): increased incidence of micronucleation
[7]
  PARP protein expression: dramatic reduction
  expression of total p53: strong increase
  protein expression of Bax: increase
  up-regulation of Ser-15-phosphorylated p53: 8 fold
[11]; 15 patients refractory to prior alkylator treatment
  objective response: 67%
[11]; ITT population
  complete response: 25%
  disease progression: 14%
  partial response: 49%
  stable disease: 12%
[11]; ITT population, 120 mg/m^2 IV days 1 and 2 every 21 days
  overall objective response rate (ORR): 74%
[11]; all patients
  median duration of response: 6.6 months
[11]; indolent patients
  median duration of response: 9.3 months
[11]; single agent, heavily pretreated patients
  toxicity: acceptable toxicity
[11]; transformed patients
  median duration of response: 2.4 months
[12]
  change of IC50 with methoxyamine addition: reduced approximately four-fold
[8]; [13]
  IC50: 33.2 µM
[8]; [14]
  IC90: 56.3 µM
[8]; SU-DHL-1, read-out: IC50 concentration
  IC50: 25 µM
[1]
  effect of O6-benzylguanine on cytotoxic potency: not enhanced

## N[C@@H](Cc1ccc(N(CCCl)CCCl)cc1)C(=O)O [melphalan]
[4]
  PARP cleavage: No PARP cleavage
[6]
  loss of viability after brief exposure and wash-out: minimal loss of viability
